# Results: patent US20240122847A1, “ORAL POLYPEPTIDE FORMULATIONS” (Bhami's Research Laboratory, Pvt. Ltd., priority 2022, published 2024)
# Experiments:
# [1] = rat, in vivo, sc, 0.04 mg
# Method: Pharmacokinetic analysis was conducted in female rats weighing 220-250 grams for 2 days. Rats in the oral treatment group was either fasted overnight or fed prior to the test sample administration. All the test animals in the treatment groups were administered with respective test formulation to the pre-designated animals. The animal was restrained and its head was held vertically, the jaws were pulled away, the tongue was gently lifted with a forceps followed by placement of a polypeptide formulation as described herein buccally/sublingually. After placing a polypeptide formulation as described herein, the snout was held together for about 1-2 mins to prevent the chewing of the polypeptide formulation. The time of dosage of each animal was noted. Blood samples were collected at aforementioned time points 0 min, 15 min, 30 min, 1 hour, 2 hours, 4 hours, 8 hours, 12 hours, 24 hours, and 48 hours into an EDTA-blood collection tubes for the separation of plasma to determine PTH (1-34) levels by ELISA. Plasma samples collected at different time points were analyzed by ELISA kit according to Creative Diagnostics protocol. This kit is based on sandwich enzyme-linked immuno-sorbent assay technology. An antibody, anti-PTH (1-34) was pre-coated onto a 96-well plate. Standards, test samples, and biotin-conjugated reagent were added to the wells and incubated. The HRP-conjugated reagent was then added, and the whole plate was incubated. Unbound conjugates were removed using wash buffer at each stage. TMB substrate was used to quantify the HRP enzymatic reaction. After TMB substrate was added, only wells that contain sufficient PTH (1-34) will produce a blue colored product, which then changes to yellow after adding the acidic stop solution. The intensity of the yellow color is proportional to the PTH (1-34) amount bound on the plate. The Optical Density (OD) was measured spectrophotometrically at 450 nm in a microplate reader, from which the concentration of PTH (1-34) can be calculated.
# PTH (1-34) was analyzed in plasma using a specific enzyme linked immunosorbent assay (ELISA). Pharmacokinetic endpoints were determined using noncompartmental methods using PK Solutions software. AUC was approximated using the trapezoidal rule on the observed concentrations. C max for each PTH (1-34) dose was derived as the maximum of all valid concentrations, and t max was then determined as the corresponding time point to C max. The terminal elimination rate constant (λz) was estimated by log-linear regression on the terminal part of the concentration-time curve, and t ½ was then calculated as t ½=ln 2/λz.
# [2] = test system: serum calcium, serum phosphorous and alkaline phosphatase; assay: Pharmacodynamics of PTH in rats; type: in vivo, SD rats; set-up: sCa (serum calcium): unit not given here; settings: for sALP (serum alkaline phosphatase) / sCa (serum calcium) / sP (serum phosphorous): subcutaneous 40 μg
# Source text: (§1) The serum calcium and serum phosphorous were estimated using Siemen's […] 744 Electrolyte Analyzer and for serum ALP Siemen's Dimension Expand Plus was used.
# The pharmacodynamics data in subcutaneous and buccal/Sublingual groups of rats are shown in Tables 27 and 28 and in FIGS. 67 and 68.
# [3] = test system: serum calcium, serum phosphorous and alkaline phosphatase; assay: Pharmacodynamics of PTH in Yorkshire pigs; type: in vivo; set-up: sCa / sP / sALP: unit not given here; settings: Yorkshire pigs
# Source text: as §1
# The pharmacodynamics data in subcutaneous and buccal/Sublingual groups are shown in Tables 21 and 22 and in FIGS. 63 and 64.
# [4] = Buccal/Sublingual Sugar Truffle Shell (0.49 mg), 0 h
# [5] = Buccal/Sublingual Sugar Truffle Shell (0.49 mg), 0.08 h
# [6] = Buccal/Sublingual Sugar Truffle Shell (0.49 mg), 0.5 h
# [7] = Buccal/Sublingual Sugar Truffle Shell (0.49 mg), 1 h
# [8] = Buccal/Sublingual Sugar Truffle Shell (0.49 mg), 2 h
# [9] = Buccal/Sublingual Sugar Truffle Shell (0.49 mg), 4 h
# [10] = Buccal/Sublingual Sugar Truffle Shell (0.49 mg), 8 h
# [11] = Buccal/Sublingual Sugar Truffle Shell (0.49 mg), 24 h
smiles,measurement,setting,value
CC[C@H](C)[C@H](NC(=O)[C@H](CCC(=O)O)NC(=O)[C@H](CO)NC(=O)[C@@H](NC(=O)[C@@H](N)CO)C(C)C)C(=O)N[C@@H](CCC(N)=O)C(=O)N[C@@H](CC(C)C)C(=O)N[C@@H](CCSC)C(=O)N[C@@H](Cc1cnc[nH]1)C(=O)N[C@@H](CC(N)=O)C(=O)N[C@@H](CC(C)C)C(=O)NCC(=O)N[C@@H](CCCCN)C(=O)N[C@@H](Cc1cnc[nH]1)C(=O)N[C@@H](CC(C)C)C(=O)N[C@@H](CC(N)=O)C(=O)N[C@@H](CO)C(=O)N[C@@H](CCSC)C(=O)N[C@@H](CCC(=O)O)C(=O)N[C@@H](CCCN=C(N)N)C(=O)N[C@H](C(=O)N[C@@H](CCC(=O)O)C(=O)N[C@@H](Cc1c[nH]c2ccccc12)C(=O)N[C@@H](CC(C)C)C(=O)N[C@@H](CCCN=C(N)N)C(=O)N[C@@H](CCCCN)C(=O)N[C@@H](CCCCN)C(=O)N[C@@H](CC(C)C)C(=O)N[C@@H](CCC(N)=O)C(=O)N[C@@H](CC(=O)O)C(=O)N[C@H](C(=O)N[C@@H](Cc1cnc[nH]1)C(=O)N[C@@H](CC(N)=O)C(=O)N[C@@H](Cc1ccccc1)C(=O)O)C(C)C)C(C)C [PTH (1-34)],AUC 0-inf/D_obs,[1],480.625 pg·h/mL/µg
same,AUC 0-inf/D_pred,[1],480.502 pg·h/mL/µg
same,Cl/F_obs,[1],0.002 (μg)/(pg/mL)/h
same,Cl/F_pred,[1],0.002 (μg)/(pg/mL)/h
same,Vz/F_obs,[1],0.013 (μg)/(pg/mL)
same,Vz/F_pred,[1],0.013 (μg)/(pg/mL)
same,"PD effect on serum calcium, serum phosphorous and serum alkaline phosphatase",[2]; PTH given by buccal/sublingual route,"clearly indicates the effect on serum calcium, serum phosphorous and serum alkaline phosphatase"
same,sALP (serum alkaline phosphatase),[2]; time 0 hours,98.5 ± 33.23
same,sCa (serum calcium),[2]; time 0 hours,9.05 ± 0.07
same,sP (serum phosphorous),[2]; time 0 hours,9.3 ± 0.28
same,sALP (serum alkaline phosphatase),[2]; time 0.08 hours,131 ± 1.41
same,sCa (serum calcium),[2]; time 0.08 hours,9.65 ± 0.77
same,sP (serum phosphorous),[2]; time 0.08 hours,8.85 ± 0.07
same,sALP (serum alkaline phosphatase),[2]; time 0.5 hours,136 ± 7.07
same,sCa (serum calcium),[2]; time 0.5 hours,10.2 ± 0.28
same,sP (serum phosphorous),[2]; time 0.5 hours,8.45 ± 0.21
same,sALP (serum alkaline phosphatase),[2]; time 1 hours,142 ± 5.65
same,sCa (serum calcium),[2]; time 1 hours,10.35 ± 0.35
same,sP (serum phosphorous),[2]; time 1 hours,4.85 ± 0.91
same,sALP (serum alkaline phosphatase),[2]; time 2 hours,184.5 ± 16.26
same,sCa (serum calcium),[2]; time 2 hours,10.45 ± 0.35
same,sP (serum phosphorous),[2]; time 2 hours,5.75 ± 1.06
same,sALP (serum alkaline phosphatase),[2]; time 4 hours,151 ± 21.21
same,sCa (serum calcium),[2]; time 4 hours,9.45 ± 0.21
same,sP (serum phosphorous),[2]; time 4 hours,8.65 ± 0.21
same,sALP (serum alkaline phosphatase),[2]; time 8 hours,131.5 ± 14.84
same,sCa (serum calcium),[2]; time 8 hours,9.25 ± 0.35
same,sP (serum phosphorous),[2]; time 8 hours,8.95 ± 0.07
same,sALP (serum alkaline phosphatase),[2]; time 24 hours,111 ± 21.21
same,sCa (serum calcium),[2]; time 24 hours,9.05 ± 0.21
same,sP (serum phosphorous),[2]; time 24 hours,9.35 ± 0.07
same,sALP,[3]; [4],170.55 ± 12.85
same,sCa,[3]; [4],9.46 ± 0.4
same,sP,[3]; [4],10.52 ± 0.33
same,sALP,[3]; [5],193.5 ± 9.32
same,sCa,[3]; [5],10.05 ± 0.17
same,sP,[3]; [5],9.87 ± 0.15
same,sALP,[3]; [6],170.25 ± 10.81
same,sCa,[3]; [6],9.77 ± 0.12
same,sP,[3]; [6],8.82 ± 0.17
same,sALP,[3]; [7],148.5 ± 11.9
same,sCa,[3]; [7],9.62 ± 0.04
same,sP,[3]; [7],8.3 ± 0.16
same,sALP,[3]; [8],137.75 ± 9.67
same,sCa,[3]; [8],9.25 ± 0.26
same,sP,[3]; [8],9.1 ± 0.49
same,sALP,[3]; [9],131 ± 11.91
same,sCa,[3]; [9],9.3 ± 0.34
same,sP,[3]; [9],9 ± 0.11
same,sALP,[3]; [10],128 ± 14.02
same,sCa,[3]; [10],9.17 ± 0.26
same,sP,[3]; [10],8.97 ± 0.17
same,sALP,[3]; [11],126.5 ± 15.28
same,sCa,[3]; [11],9 ± 0.18
same,sP,[3]; [11],9.02 ± 0.14
same,sALP,"[3]; Subcutaneous (40 μg), 0 h",116.5 ± 6.36
same,sCa,"[3]; Subcutaneous (40 μg), 0 h",9.35 ± 0.63
same,sP,"[3]; Subcutaneous (40 μg), 0 h",10.7 ± 0.14
same,sALP,"[3]; Subcutaneous (40 μg), 0.08 h",119.5 ± 2.12
same,sCa,"[3]; Subcutaneous (40 μg), 0.08 h",9.65 ± 0.77
same,sP,"[3]; Subcutaneous (40 μg), 0.08 h",10.52 ± 0.17
same,sALP,"[3]; Subcutaneous (40 μg), 0.5 h",134.5 ± 17.67
same,sCa,"[3]; Subcutaneous (40 μg), 0.5 h",9.95 ± 0.49
same,sP,"[3]; Subcutaneous (40 μg), 0.5 h",9.8 ± 0.28
same,sALP,"[3]; Subcutaneous (40 μg), 1 h",158 ± 38.18
same,sCa,"[3]; Subcutaneous (40 μg), 1 h",10.4 ± 0.14
same,sP,"[3]; Subcutaneous (40 μg), 1 h",9 ± 0.84
same,sALP,"[3]; Subcutaneous (40 μg), 2 h",152.5 ± 36.06
same,sCa,"[3]; Subcutaneous (40 μg), 2 h",10.3 ± 0.14
same,sP,"[3]; Subcutaneous (40 μg), 2 h",10.25 ± 1.06
same,sALP,"[3]; Subcutaneous (40 μg), 4 h",141.5 ± 33.23
same,sCa,"[3]; Subcutaneous (40 μg), 4 h",9.9 ± 0.42
same,sP,"[3]; Subcutaneous (40 μg), 4 h",11 ± 0
same,sALP,"[3]; Subcutaneous (40 μg), 8 h",133.5 ± 23.33
same,sCa,"[3]; Subcutaneous (40 μg), 8 h",9.5 ± 0.28
same,sP,"[3]; Subcutaneous (40 μg), 8 h",11.4 ± 0.28
same,sALP,"[3]; Subcutaneous (40 μg), 24 h",114.5 ± 3.53
